Among the data in ChEMBL document CHEMBL1122585, “Synthesis of a novel class of heteroaromatic amino acids and their use in the preparation of analogues of luteinizing hormone-releasing hormone” (J Med Chem, 1984) are Potency and pKa values, retold here.

By pKa is commonly meant the pH at which an ionisable group is half protonated.

For one data set, the species on record is Rattus norvegicus. As to the kind of experiment: Antifertility effect in adult female rats by estrus suppression assay. In kind it is functional.
In turn, `CC(C)C[C@H](NC(=O)[C@@H](Cc1nc2ccccc2s1)NC(=O)[C@H](Cc1ccc(O)cc1)NC(=O)[C@H](CO)NC(=O)[C@H](Cc1c[nH]c2ccccc12)NC(=O)[C@H](Cc1c[nH]cn1)NC(=O)[C@@H]1CCC(=O)N1)C(=O)N[C@@H](CCCN=C(N)N)C(=O)N1CCC[C@H]1C(=O)NCC(N)=O` displayed a Potency of 1. Same read-out and setting: then `CCNC(=O)[C@@H]1CCCN1C(=O)[C@H](CCCN=C(N)N)NC(=O)[C@H](CC(C)C)NC(=O)[C@@H](Cc1nc2c(ccc3ccccc32)[nH]1)NC(=O)[C@H](Cc1ccc(O)cc1)NC(=O)[C@H](CO)NC(=O)[C@H](Cc1c[nH]c2ccccc12)NC(=O)[C@H](Cc1c[nH]cn1)NC(=O)[C@@H]1CCC(=O)N1`, with 0.8. Still for that read-out and setting: then `CCNC(=O)[C@@H]1CCCN1C(=O)[C@H](CCCN=C(N)N)NC(=O)[C@H](CC(C)C)NC(=O)[C@@H](Cc1nc2c([nH]1)CCCC2)NC(=O)[C@H](Cc1ccc(O)cc1)NC(=O)[C@H](CO)NC(=O)[C@H](Cc1c[nH]c2ccccc12)NC(=O)[C@H](Cc1c[nH]cn1)NC(=O)[C@@H]1CCC(=O)N1`, with 1.4; and `CC(C)C[C@H](NC(=O)[C@@H](Cc1nc2c([nH]1)CCCC2)NC(=O)[C@H](Cc1ccc(O)cc1)NC(=O)[C@H](CO)NC(=O)[C@H](Cc1c[nH]c2ccccc12)NC(=O)[C@H](Cc1c[nH]cn1)NC(=O)[C@@H]1CCC(=O)N1)C(=O)N[C@@H](CCCN=C(N)N)C(=O)N1CCC[C@H]1C(=O)NCC(N)=O`, with 0.6; and `Cc1cc2nc(C[C@@H](NC(=O)[C@H](Cc3ccc(O)cc3)NC(=O)[C@H](CO)NC(=O)[C@H](Cc3c[nH]c4ccccc34)NC(=O)[C@H](Cc3c[nH]cn3)NC(=O)[C@@H]3CCC(=O)N3)C(=O)N[C@@H](CC(C)C)C(=O)N[C@@H](CCCN=C(N)N)C(=O)N3CCC[C@H]3C(=O)NCC(N)=O)[nH]c2cc1C`, with 1.6. On the same count and under the same terms, next, `CC(C)C[C@H](NC(=O)[C@@H](Cc1nc2ccccc2o1)NC(=O)[C@H](Cc1ccc(O)cc1)NC(=O)[C@H](CO)NC(=O)[C@H](Cc1c[nH]c2ccccc12)NC(=O)[C@H](Cc1c[nH]cn1)NC(=O)[C@@H]1CCC(=O)N1)C(=O)N[C@@H](CCCN=C(N)N)C(=O)N1CCC[C@H]1C(=O)NCC(N)=O`: 1.2; `CCNC(=O)[C@@H]1CCCN1C(=O)[C@H](CCCN=C(N)N)NC(=O)[C@H](CC(C)C)NC(=O)[C@@H](Cc1nc2ccccc2[nH]1)NC(=O)[C@H](Cc1ccc(O)cc1)NC(=O)[C@H](CO)NC(=O)[C@H](Cc1c[nH]c2ccccc12)NC(=O)[C@H](Cc1c[nH]cn1)NC(=O)[C@@H]1CCC(=O)N1`: 1.

Take `CC(C)C[C@H](NC(=O)[C@@H](Cc1nc2cc(Cl)c(Cl)cc2[nH]1)NC(=O)[C@H](Cc1ccc(O)cc1)NC(=O)[C@H](CO)NC(=O)[C@H](Cc1c[nH]c2ccccc12)NC(=O)[C@H](Cc1c[nH]cn1)NC(=O)[C@@H]1CCC(=O)N1)C(=O)N[C@@H](CCCN=C(N)N)C(=O)N1CCC[C@H]1C(=O)NCC(N)=O`: the Potency was 0.9.

As for `CC(C)C[C@H](NC(=O)[C@@H](Cc1nc2ccccc2[nH]1)NC(=O)[C@H](Cc1ccc(O)cc1)NC(=O)[C@H](CO)NC(=O)[C@H](Cc1c[nH]c2ccccc12)NC(=O)[C@H](Cc1c[nH]cn1)NC(=O)[C@@H]1CCC(=O)N1)C(=O)N[C@@H](CCCN=C(N)N)C(=O)N1CCC[C@H]1C(=O)NCC(N)=O`, the Potency is listed as 0.3.

Test system in a further data set: not listed separately
Put plainly: Acid dissociation constant was determined. It is filed as ADME.
`NC(Cc1nc2ccccc2[nH]1)C(=O)O` (stereo not drawn) displayed a pKa of 4.7.

`NC(Cc1nc2c([nH]1)CCCC2)C(=O)O` (stereo not drawn) showed a pKa of 7.5. Same read-out and setting: then `Cc1cc2nc(CC(N)C(=O)O)[nH]c2cc1C` (stereo not drawn), with 5.4; and `NC(Cc1nc2cc(Cl)c(Cl)cc2[nH]1)C(=O)O` (stereo not drawn), with 3.4.
